Source: article PMC6010013, “Synthesis, physiochemical property and antimicrobial activity of novel quaternary ammonium salts” (Journal of Enzyme Inhibition and Medicinal Chemistry, 2017)

Legend:
[1] = tested on: Aspergillus niger; experiment: MIC, broth tube dilution; format: cell-based; conditions: 72 h, 28 ℃, read-out: Minimal inhibitory concentration (MIC)
Source text: (§1) In this paper, antimicrobial activities of 24 QASs were detected by quantitative tests. […] Benzalkonium chloride (BZK) and chlorhexidine acetate (CA) was selected as positive controls. Representative compound POT-C12QAS (2) which synthesised and evaluated in previous work was also taken as a reference compound in MIC, MBC and cytotoxicity tests. […]
(§2) agriculture were used as target pathogens in this study, including three strains of Gram-positive bacteria (S. Aureus, α-H-tococcus, β-H-tococcus), three strains of Gram-negative bacteria (E. coli, P. aeruginosa, Proteus vulgaris) and four strains of fungi (Canidia albicans, Cytospora mandshurica, Physalospora piricola, Aspergillus niger). The antimicrobial tests were assayed, according to standard CLSI methods for antimicrobial dilution susceptibility tests to measure the minimum inhibitory concentration (MIC) and minimum bactericidal concentration (MBC)2.
(§3) A broth tube dilution method was followed to determine the MIC values for all the screened compounds against the micro-organisms, and for comparison benzalkonium chloride (BZK) and chlorhexidine acetate (CA) was used as a reference. For sample preparation, each of the test compounds and reference were dissolved in DMSO or sterile water at a concentration of 1600 μg/mL, and further dilutions of the compounds and reference in culture medium MHB (Muller-Hinton Broth) were prepared at the required quantities of 400, 200, 100 etc., down to 0.39 μg/mL. Bacterial strains and fungal strains were maintained on MHA (Muller-Hinton Agar) medium at 37℃ or 28 ℃ for 12 h or 72h, respectively. The microbial inocula were prepared by suspension in 10 mL of culture medium for colonies from culture on MHA. The cell density of each inoculum was adjusted in culture medium of a 0.5 McFarland standard (1-2×10^8 CFU/mL). The final amount applied was 10^5 CFU/mL for bacteria and fungi. The microbial inocula were added to the twofold diluted samples. One growth control tube was prepared […] the addition of the compound and one blank tube was prepared without the addition of the microorganism. MIC values were read after incubation at 37℃ or 28 ℃ for bacterial and fungal strains, respectively. After 12 h or 72h, the last tube with no growth of micro-organisms was recorded to represent the MIC value expressed in μg/ml. All experiments were carried out three times. […]

[2] = tested on: Canidia albicans; experiment: MIC, broth tube dilution; format: cell-based; conditions: 72 h, 28 ℃, read-out: Minimal inhibitory concentration (MIC)
Source text: as §1, §2, §3

[3] = tested on: Cytospora mandshurica; experiment: MIC, broth tube dilution; format: cell-based; conditions: Cytospora, 72 h, 28 ℃, read-out: Minimal inhibitory concentration (MIC)
Source text: as §1, §2, §3

[4] = tested on: E. coli; experiment: MIC, broth tube dilution; format: cell-based; conditions: Escherichia coli, 12 h, 37℃, read-out: Minimal inhibitory concentration (MIC)
Source text: as §1, §2, §3

[5] = tested on: P. aeruginosa; experiment: MIC, broth tube dilution; format: cell-based; conditions: Pseudomonas aeruginosa, 12 h, 37℃, read-out: Minimal inhibitory concentration (MIC)
Source text: as §1, §2, §3

[6] = tested on: Physalospora piricola; experiment: MIC, broth tube dilution; format: cell-based; conditions: 72 h, 28 ℃, read-out: Minimal inhibitory concentration (MIC)
Source text: as §1, §2, §3

[7] = tested on: Proteus vulgaris; experiment: MIC, broth tube dilution; format: cell-based; conditions: 12 h, 37℃, read-out: Minimal inhibitory concentration (MIC)
Source text: as §1, §2, §3

[8] = tested on: S. aureus; experiment: MIC, broth tube dilution; format: cell-based; conditions: Staphylococcus aureus, 12 h, 37℃, read-out: Minimal inhibitory concentration (MIC)
Source text: as §1, §2, §3

[9] = tested on: α-H-tococcus; experiment: MIC, broth tube dilution; format: cell-based; conditions: 12 h, 37℃, read-out: Minimal inhibitory concentration (MIC)
Source text: as §1, §2, §3

[10] = tested on: β-H-tococcus; experiment: MIC, broth tube dilution; format: cell-based; conditions: 12 h, 37℃, read-out: Minimal inhibitory concentration (MIC)
Source text: as §1, §2, §3

[11] = tested on: Aspergillus niger; experiment: MBC, agar plating of dilutions without growth; format: cell-based; conditions: 99.9% bactericidal, read-out: Minimal bactericidal concentration (MBC)
Source text: as §1, §2, §3
(§4) was placed on agar plates in triplicate, and incubated at 37℃ or 28 ℃ for 12 h or 72h. The number of colonies on each plate was read, and the MBC was determined as the lowest concentration that achieved a 99.9% bactericidal in the agar plate.

[12] = tested on: Canidia albicans; experiment: MBC, agar plating of dilutions without growth; format: cell-based; conditions: 99.9% bactericidal, read-out: Minimal bactericidal concentration (MBC)
Source text: as §1, §2, §3, §4

[13] = tested on: Cytospora mandshurica; experiment: MBC, agar plating of dilutions without growth; format: cell-based; conditions: Cytospora, 99.9% bactericidal, read-out: Minimal bactericidal concentration (MBC)
Source text: as §1, §2, §3, §4

[14] = tested on: E. coli; experiment: MBC, agar plating of dilutions without growth; format: cell-based; conditions: Escherichia coli, 99.9% bactericidal, read-out: Minimal bactericidal concentration (MBC)
Source text: as §1, §2, §3, §4

[15] = tested on: P. aeruginosa; experiment: MBC, agar plating of dilutions without growth; format: cell-based; conditions: Pseudomonas aeruginosa, 99.9% bactericidal, read-out: Minimal bactericidal concentration (MBC)
Source text: as §1, §2, §3, §4

[16] = tested on: Physalospora piricola; experiment: MBC, agar plating of dilutions without growth; format: cell-based; conditions: 99.9% bactericidal, read-out: Minimal bactericidal concentration (MBC)
Source text: as §1, §2, §3, §4

[17] = tested on: Proteus vulgaris; experiment: MBC, agar plating of dilutions without growth; format: cell-based; conditions: 99.9% bactericidal, read-out: Minimal bactericidal concentration (MBC)
Source text: as §1, §2, §3, §4

[18] = tested on: S. aureus; experiment: MBC, agar plating of dilutions without growth; format: cell-based; conditions: Staphylococcus aureus, 99.9% bactericidal, read-out: Minimal bactericidal concentration (MBC)
Source text: as §1, §2, §3, §4

[19] = tested on: α-H-tococcus; experiment: MBC, agar plating of dilutions without growth; format: cell-based; conditions: 99.9% bactericidal, read-out: Minimal bactericidal concentration (MBC)
Source text: as §1, §2, §3, §4

[20] = Cytotoxicity, MTT assay; format: cell-based, human; conditions: human, MTT, 24 h
Method: These six series of antimicrobial compounds may be applied to daily or clinical disinfectants for unbroken skin and trauma, or agricultural fungicides alternatively. Thus, their cytotoxicity for skin or body tissues are crucial. In this study, the cytotoxicity of target compounds was evaluated for human immortalised epidermal (HaCat) and human normal liver (LO2) cell line using MTT assay. […] The IC50 values of 5a, 6a, 10a, 16a, 16 b were about more than 50 μg/mL for LO2 and HaCat.
Cytotoxicity Testing with MTT Method
Human immortalized epidermal cells (HaCat) line were cultured in Dulbecco’s modified Eagle’s medium containing 10% fetal bovine serum, 1% penicillin, and 1% streptomycin at 37°C in a 5% CO2/95% air incubator MCO-15AC (SANYO). Human normal liver cells (LO2) line were cultured in Roswell Park Memorial Institute medium containing 10% fetal bovine serum, 1% penicillin, and 1% streptomycin at 37°C in a 5% CO2/95% air incubator MCO-15AC (SANYO). HaCat or LO2 cells in 96-well plate were adjusted to 1.0 × 10^5 cells mL-1 and cells were passed and cell supernatant was pour out before plating on glass slide at 37°C, 5% CO2 for 24 h. Cells were pretreated with 100 μL QAS for 24 h and cell supernatant with QAS was pour out and washed with PBS buffer system. Then, the cells were treated with the MTT solution (MTT, 3-(4,5-dimethythiazol-2-yl)-2,5-diphenyl-tetrazolium bromide, 20 μL, 5 mg/mL) for 4 h. The dark blue formazan crystal formed in the intact cells was solubilized with dimethyl sulfoxide, and absorbance at 570 nm was measured with a microplate reader (Multiskan MK3-Thermo Labsystems, USA). The results were expressed as percentage of the control value from the normal cells without treatments of QAS. […]

[21] = LO2 human normal liver cells, LO2 cells

| SMILES | MIC [1] [µg/mL] | MIC [2] [µg/mL] | MIC [3] [µg/mL] | MIC [4] [µg/mL] | MIC [5] [µg/mL] | MIC [6] [µg/mL] | MIC [7] [µg/mL] | MIC [8] [µg/mL] | MIC [9] [µg/mL] | MIC [10] [µg/mL] | MBC [11] [µg/mL] | MBC [12] [µg/mL] | MBC [13] [µg/mL] | MBC [14] [µg/mL] | MBC [15] [µg/mL] | MBC [16] [µg/mL] | MBC [17] [µg/mL] | MBC [18] [µg/mL] | MBC [19] [µg/mL] | IC50 at 24 h [20, 21] [µg/mL] | also measured |
| --- | --- | --- | --- | --- | --- | --- | --- | --- | --- | --- | --- | --- | --- | --- | --- | --- | --- | --- | --- | --- | --- |
| C[N+](CCO)(CCO)CCCCCCSc1nnc(-c2ccc(F)cc2)o1 [Compound 5a] | 50 | 50 | 50 | 100 | 100 | 12.5 | 100 | 100 | 50 | 25 | 50 | 50 | 50 | 100 | 100 | 12.5 | 100 | 100 | 50 | > 50 | IC50 at 24 h ([20]; HaCat cells): > 50 µg/mL |
| C[N+](CCO)(CCO)CCCCCCCCCCCCSc1nnc(-c2ccccc2)o1 [Compound 2, reference compound] | 3.12 | 6.25 | 3.12 | 25 | 12.5 | 3.12 | 25 | 6.25 | 6.25 | 6.25 | 3.12 | 12.5 | 6.25 | 50 | 25 | 3.12 | 50 | 12.5 | 6.25 | 14.2 ± 2.15 | IC50 at 24 h ([20]; HaCat human immortalised epidermal cells, HaCat cells): 18.3 ± 2.21 µg/mL |
| C[N+](CCO)(CCO)CCCCCCCCCCCCSc1nnc(-c2ccc(F)cc2)o1 [Compound 5d] | 25 | 12.5 | 12.5 | ~25 | ~50 | 3.12 | ~25 | ~12.5 | ~12.5 | ~6.25 | 25 | 12.5 | 12.5 | 25 | 50 | 3.12 | 25 | 12.5 | 12.5 | 6.95 ± 0.62 | IC50 at 24 h ([20]; HaCat cells): 6.14 ± 0.53 µg/mL |
| C[N+](CCO)(CCO)CCCCCCCCSc1nnc(-c2ccc(C(F)(F)F)cc2)o1 [Compound 6b] | 12.5 | 25 | 12.5 | 25 | 50 | 3.12 | 50 | 25 | 12.5 | 12.5 | 25 | 25 | 12.5 | 50 | 50 | 6.25 | 50 | 25 | 25 | > 25 | IC50 at 24 h ([20]; HaCat cells): > 25 µg/mL |
